Test results taken from patent publication US20080221086A1, “Novel Inhibitors of Glutaminyl Cyclase” (PROBIODRUG AG, priority 2006, published 2008).
Like-named read-outs stand apart in the source and are kept apart here.

Molecular target: hQC (Homo sapiens, UniProt Q16769)
Assay: Fluorometric assay of glutaminyl cyclase (QC) inhibition, H-Gln-βNA or H-Gln-AMC substrate
Assay type: biochemical
Method: All compounds were immediately tested regarding their activity as hQC inhibitors.
The purity of the compounds was determined by HPLC-MS. The IC50 value against hQC was measured using the fluorescent assay.
All measurements were performed with a BioAssay Reader HTS-7000Plus for microplates (Perkin Elmer) at 30° C. QC activity was evaluated fluorometrically using H-Gln-βNA. The samples consisted of 0.2 mM fluorogenic substrate, 0.25 U pyroglutamyl aminopeptidase (Unizyme, Hørsholm, Denmark) in 0.2 M Tris/HCl, pH 8.0 containing 20 mM EDTA and an appropriately diluted aliquot of QC in a final volume of 250 μl. Excitation/emission wavelengths were 320/410 nm. The assay reactions were initiated by addition of glutaminyl cyclase. QC activity was determined from a standard curve of β-naphthylamine under assay conditions. One unit is defined as the amount of QC catalyzing the formation of 1 μmol pGlu-βNA from H-Gln-βNA per minute under the described conditions.
In a second fluorometric assay, QC was activity was determined using H-Gln-AMC as substrate. Reactions were carried out at 30° C. utilizing the NOVOStar reader for microplates (BMG labtechnologies). The samples consisted of varying concentrations of the fluorogenic substrate, 0.1 U pyroglutamyl aminopeptidase (Qiagen) in 0.05 M Tris/HCl, pH 8.0 containing 5 mM EDTA and an appropriately diluted aliquot of QC in a final volume of 250 μl. Excitation/emission wavelengths were 380/460 nm. The assay reactions were initiated by addition of glutaminyl cyclase. QC activity was determined from a standard curve of 7-amino-4-methylcoumarin under assay conditions. The kinetic data were evaluated using GraFit software.
For inhibitor testing, the sample composition was the same as described above, except of the putative inhibitory compound added. For a rapid test of QC-inhibition, samples contained 4 mM of the respective inhibitor and a substrate concentration at 1 KM. For detailed investigations of the inhibition and determination of Ki-values, influence of the inhibitor on the auxiliary enzymes was investigated first. In every case, there was no influence on either enzyme detected, thus enabling the reliable determination of the QC inhibition. The inhibitory constant was evaluated by fitting the set of progress curves to the general equation for competitive inhibition using GraFit software.

[1] = compound from preparative synthesis, purified by chromatography, fluorescent assay, read-out: IC50 hQC

hQC, sequence (Q16769 29-361): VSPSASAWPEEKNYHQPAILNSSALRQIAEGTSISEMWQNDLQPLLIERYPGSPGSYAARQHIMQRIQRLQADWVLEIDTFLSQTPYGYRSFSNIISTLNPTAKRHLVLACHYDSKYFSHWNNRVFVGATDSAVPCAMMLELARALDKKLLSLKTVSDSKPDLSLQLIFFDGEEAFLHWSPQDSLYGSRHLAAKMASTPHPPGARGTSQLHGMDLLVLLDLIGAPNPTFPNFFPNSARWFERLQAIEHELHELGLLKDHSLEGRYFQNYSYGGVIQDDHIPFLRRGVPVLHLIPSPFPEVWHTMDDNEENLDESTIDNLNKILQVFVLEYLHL

| SMILES | IC50 (read-out: IC50) [µM] | IC50 [1] [µM] |
| --- | --- | --- |
| O=C1N/C(=N\c2ccc3c(c2)OCCO3)C(c2ccccc2Cl)N1CCCn1ccnc1 (stereo not drawn) [Compound 34, 5-(2-Chloro-phenyl)-4-2,3-dihydro-benzo1,4dioxin-6-ylimino-1-(3-imidazol-1-yl-propyl)-imidazolidin-2-one] | 4 | – |
| CCCCC1/C(=N\c2ccc3c(c2)OCCO3)NC(=O)N1CCCn1ccnc1 (stereo not drawn) [Compound 35, 5-Butyl-4-2,3-dihydro-benzo1,4dioxin-6-ylimino-1-(3-imidazol-1-yl-propyl)-imidazolidin-2-one] | 5.8 | – |
| CCCC/N=C1\NC(=O)N(CCCn2ccnc2)C1c1cccc(F)c1F (stereo not drawn) [Compound 36, 4-Butylimino-5-(2,3-difluoro-phenyl)-1-(3-imidazol-1-ylpropyl)-imidazolidin-2-one] | 6.7 | – |
| CCCC/N=C1/NC(=O)N(CCCn2ccnc2)C1c1cc(F)cc(F)c1 (stereo not drawn) [Compound 37, 4-Butylimino-5-(3,5-difluoro-phenyl)-1-(3-imidazol-1-ylpropyl)-imidazolidin-2-one] | 5.8 | – |
| O=C1N/C(=N/CCc2cccs2)C(c2ccccc2)N1CCCn1ccnc1 (stereo not drawn) [Compound 38, 1-(3-Imidazol-1-yl-propyl)-5-phenyl-4-2-thiophen-2-yl-ethylimino-imidazolidin-2-one] | 7.6 | – |
| O=C1N/C(=N/CCc2cccs2)C(C2CCC=CO2)N1CCCn1ccnc1 (stereo not drawn) [Compound 39, 5-(3,4-Dihydro-2H-pyran-2-yl)-1-(3-imidazol-1-yl-propyl)-4-2-thiophen-2-yl-ethylimino-imidazolidin-2-one] | 7.6 | – |
| O=C1N/C(=N\CCc2cccs2)C(c2cccc(F)c2F)N1CCCn1ccnc1 (stereo not drawn) [Compound 40, 5-(2,3-Difluoro-phenyl)-1-(3-imidazol-1-yl-propyl)-4-2-thiophen-2-yl-ethylimino-imidazolidin-2-one] | 4.9 | – |
| O=C1N/C(=N/CCc2cccs2)C(c2cc(F)cc(F)c2)N1CCCn1ccnc1 (stereo not drawn) [Compound 41, 5-(3,5-Difluoro-phenyl)-1-(3-imidazol-1-yl-propyl)-4-2-thiophen-2-yl-ethylimino-imidazolidin-2-one] | 3.1 | – |
| O=C1N/C(=N/CCc2cccs2)C(c2ccc(Cl)c(F)c2)N1CCCn1ccnc1 (stereo not drawn) [Compound 42, 5-(4-Chloro-3-fluoro-phenyl)-1-(3-imidazol-1-yl-propyl)-4-2-thiophen-2-yl-ethylimino-imidazolidin-2-one] | 5.8 | – |
| O=C1N/C(=N\CCc2cccs2)C(c2ccccc2Cl)N1CCCn1ccnc1 (stereo not drawn) [Compound 43, 5-(2-Chloro-phenyl)-1-(3-imidazol-1-yl-propyl)-4-(2-thiophen-2-yl-ethylimino)-imidazolidin-2-one] | 0.04 | 0.858 |
| O=C1N/C(=N\CCc2cccs2)C(c2ccccc2F)N1CCCn1ccnc1 (stereo not drawn) [Compound 44, 5-(2-Fluoro-phenyl)-1-(3-imidazol-1-yl-propyl)-4-(2-thiophen-2-yl-ethylimino)-imidazolidin-2-one] | 5.8 | – |
| O=C1N/C(=N/CCc2cccs2)C(c2ccc(O)cc2)N1CCCn1ccnc1 (stereo not drawn) [Compound 45, 5-(4-Hydroxy-phenyl)-1-(3-imidazol-1-yl-propyl)-4-2-thiophen-2-yl-ethylimino-imidazolidin-2-one] | 4.9 | – |
| Cc1cccc(C2C(=NCCc3c[nH]c4ccccc34)NC(=O)N2CCCn2ccnc2)c1O (stereo not drawn) [Compound 46, 5-(2-Hydroxy-3-methyl-phenyl)-1-(3-imidazol-1-yl-propyl)-4-2-(1H-indol-3-yl)-ethylimino-imidazolidin-2-one] | 2.2 | – |
| O=C1N/C(=N/CCc2c[nH]c3ccccc23)C(c2ccsc2)N1CCCn1ccnc1 (stereo not drawn) [Compound 47, 1-(3-Imidazol-1-yl-propyl)-4-2-(1H-indol-3-yl)-ethylimino-5-thiophen-3-yl-imidazolidin-2-one] | 4 | – |
| CC1/C(=N\CCc2c[nH]c3ccccc23)NC(=O)N1CCCn1ccnc1 (stereo not drawn) [Compound 48, 1-(3-Imidazol-1-yl-propyl)-4-2-(1H-indol-3-yl)-ethylimino-5-methyl-imidazolidin-2-one] | 7.6 | – |
| O=C1N/C(=N/CCc2c[nH]c3ccccc23)C(c2ccccc2)N1CCCn1ccnc1 (stereo not drawn) [Compound 49, 1-(3-Imidazol-1-yl-propyl)-4-2-(1H-indol-3-yl)-ethylimino-5-phenyl-imidazolidin-2-one] | 4.9 | – |

| SMILES | IC50 (read-out: IC50) [µM] | IC50 [1] [µM] |
| --- | --- | --- |
| O=C1N/C(=N/CCc2c[nH]c3ccccc23)C(c2ccc[nH]2)N1CCCn1ccnc1 (stereo not drawn) [Compound 50, 1-(3-Imidazol-1-yl-propyl)-4-2-(1H-indol-3-yl)-ethylimino-5-(1H-pyrrol-2-yl)-imidazolidin-2-one] | 6.7 | – |
| O=C1N/C(=N/CCc2c[nH]c3ccccc23)C(C2CCC=CO2)N1CCCn1ccnc1 (stereo not drawn) [Compound 51, 5-(3,4-Dihydro-2H-pyran-2-yl)-1-(3-imidazol-1-yl-propyl)-4-2-(1H-indol-3-yl)-ethylimino-imidazolidin-2-one] | 5.8 | – |
| O=C1N/C(=N\CCc2c[nH]c3ccccc23)C(c2cccc(F)c2F)N1CCCn1ccnc1 (stereo not drawn) [Compound 52, 5-(2,3-Difluoro-phenyl)-1-(3-imidazol-1-yl-propyl)-4-(2-(1H-indol-3-yl)-ethylimino)-imidazolidin-2-one] | 2.2 | 0.626 |
| O=C1N/C(=N/CCc2c[nH]c3ccccc23)C(c2cc(F)cc(F)c2)N1CCCn1ccnc1 (stereo not drawn) [Compound 53, 5-(3,5-Difluoro-phenyl)-1-(3-imidazol-1-yl-propyl)-4-2-(1H-indol-3-yl)-ethylimino-imidazolidin-2-one] | 4 | – |
| O=C1N/C(=N/CCc2c[nH]c3ccccc23)C(c2ccc(Cl)c(F)c2)N1CCCn1ccnc1 (stereo not drawn) [Compound 54, 5-(4-Chloro-3-fluoro-phenyl)-1-(3-imidazol-1-yl-propyl)-4-2-(1H-indol-3-yl)-ethylimino-imidazolidin-2-one] | 3.1 | – |
| O=C1N/C(=N/CCc2c[nH]c3ccccc23)C(c2ccccc2Cl)N1CCCn1ccnc1 (stereo not drawn) [Compound 55, 5-(2-Chloro-phenyl)-1-(3-imidazol-1-yl-propyl)-4-2-(1H-indol-3-yl)-ethylimino-imidazolidin-2-one] | 2.2 | 0.482 |
| O=C1N/C(=N/CCc2c[nH]c3ccccc23)C(CO)N1CCCn1ccnc1 (stereo not drawn) [Compound 56, 5-Hydroxymethyl-1-(3-imidazol-1-yl-propyl)-4-2-(1H-indol-3-yl)-ethylimino-imidazolidin-2-one] | 8.5 | – |
| O=C1N/C(=N/CCc2c[nH]c3ccccc23)C(C2CC2)N1CCCn1ccnc1 (stereo not drawn) [Compound 57, 5-Cyclopropyl-1-(3-imidazol-1-yl-propyl)-4-2-(1H-indol-3-yl)-ethylimino-imidazolidin-2-one] | 5.8 | – |
| O=C1N/C(=N/CCc2c[nH]c3ccccc23)C(c2ccco2)N1CCCn1ccnc1 (stereo not drawn) [Compound 58, 5-Furan-2-yl-1-(3-imidazol-1-yl-propyl)-4-2-(1H-indol-3-yl)-ethylimino-imidazolidin-2-one] | 6.7 | – |
| CCCCC1/C(=N\CCc2c[nH]c3ccccc23)NC(=O)N1CCCn1ccnc1 (stereo not drawn) [Compound 59, 5-Butyl-1-(3-imidazol-1-yl-propyl)-4-2-(1H-indol-3-yl)-ethylimino-imidazolidin-2-one] | 4.9 | – |
| CCC1/C(=N\CCc2c[nH]c3ccccc23)NC(=O)N1CCCn1ccnc1 (stereo not drawn) [Compound 60, 5-Ethyl-1-(3-imidazol-1-yl-propyl)-4-2-(1H-indol-3-yl)-ethylimino-imidazolidin-2-one] | 5.8 | – |
| O=C1N/C(=N/CCc2c[nH]c3ccccc23)C(c2ccccc2F)N1CCCn1ccnc1 (stereo not drawn) [Compound 61, 5-(2-Fluoro-phenyl)-1-(3-imidazol-1-yl-propyl)-4-(2-(1H-indol-3-yl)-ethylimino)-imidazolidin-2-one] | 2.2 | 0.452 |
| O=C1N/C(=N/CCc2c[nH]c3ccccc23)C(c2cccc(F)c2)N1CCCn1ccnc1 (stereo not drawn) [Compound 62, 5-(3-Fluoro-phenyl)-1-(3-imidazol-1-yl-propyl)-4-2-(1H-indol-3-yl)-ethylimino-imidazolidin-2-one] | 3.1 | – |
| O=C1N/C(=N/CCc2c[nH]c3ccccc23)C(c2ccc(F)cc2)N1CCCn1ccnc1 (stereo not drawn) [Compound 63, 5-(4-Fluoro-phenyl)-1-(3-imidazol-1-yl-propyl)-4-2-(1H-indol-3-yl)-ethylimino-imidazolidin-2-one] | 3.1 | – |
| O=C1N/C(=N/CCc2c[nH]c3ccccc23)C(c2ccc(O)cc2)N1CCCn1ccnc1 (stereo not drawn) [Compound 64, 5-(4-Hydroxy-phenyl)-1-(3-imidazol-1-yl-propyl)-4-2-(1H-indol-3-yl)-ethylimino-imidazolidin-2-one] | 1.3 | – |
| O=C(C/N=C1/NC(=O)N(CCCn2ccnc2)C1c1ccsc1)N1CCc2ccccc2C1 (stereo not drawn) [Compound 65, 4-2-(3,4-Dihydro-1H-isoquinolin-2-yl)-2-oxo-ethylimino-1-(3-imidazol-1-yl-propyl)-5-thiophen-3-yl-imidazolidin-2-one] | 5.8 | – |
